{
  "source": "ChEMBL document CHEMBL1145163",
  "about": "“Structure-based design, synthesis, and memapsin 2 (BACE) inhibitory activity of carbocyclic and heterocyclic peptidomimetics” (J Med Chem, 2005)",
  "key": {"Cathepsin D [1]": {"target": "T1, Cathepsin D (Homo sapiens, UniProt P07339)", "T1 sequence (P07339 65-162 limits assumed)": "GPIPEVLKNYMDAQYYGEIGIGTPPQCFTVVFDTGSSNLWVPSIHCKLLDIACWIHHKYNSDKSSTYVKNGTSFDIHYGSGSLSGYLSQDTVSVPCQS", "T1 sequence (P07339 169-412 limits assumed)": "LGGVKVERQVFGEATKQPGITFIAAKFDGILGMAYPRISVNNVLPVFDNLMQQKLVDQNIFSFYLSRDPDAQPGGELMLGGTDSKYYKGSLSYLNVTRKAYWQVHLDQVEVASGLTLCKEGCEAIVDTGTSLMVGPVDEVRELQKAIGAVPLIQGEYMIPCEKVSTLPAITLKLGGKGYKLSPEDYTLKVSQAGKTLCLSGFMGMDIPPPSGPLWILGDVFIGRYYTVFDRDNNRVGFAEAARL", "assay": "Inhibitory concentration against human Cathepsin D"}, "Beta-secretase 1 [2]": {"target": "T2, Beta-secretase 1 (Homo sapiens, UniProt P56817)", "T2 sequence (P56817 whole entry)": "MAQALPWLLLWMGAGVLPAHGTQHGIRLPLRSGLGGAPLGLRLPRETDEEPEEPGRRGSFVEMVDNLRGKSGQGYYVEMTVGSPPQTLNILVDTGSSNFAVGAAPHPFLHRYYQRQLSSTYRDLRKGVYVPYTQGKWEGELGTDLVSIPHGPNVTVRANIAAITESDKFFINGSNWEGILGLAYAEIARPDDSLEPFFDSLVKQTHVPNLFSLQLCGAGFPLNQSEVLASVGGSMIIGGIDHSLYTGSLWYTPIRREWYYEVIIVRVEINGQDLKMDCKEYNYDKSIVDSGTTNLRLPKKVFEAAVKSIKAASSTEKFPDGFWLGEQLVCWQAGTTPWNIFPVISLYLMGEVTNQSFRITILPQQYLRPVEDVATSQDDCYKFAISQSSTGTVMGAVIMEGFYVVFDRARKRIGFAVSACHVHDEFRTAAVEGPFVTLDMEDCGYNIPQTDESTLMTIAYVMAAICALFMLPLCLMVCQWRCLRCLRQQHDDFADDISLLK", "assay": "Inhibitory concentration against human Membrane-associated aspartic protease 2"}, "Cathepsin D [3]": {"target": "T1, Cathepsin D", "assay": "Inhibitory activity against human Cathepsin D at 0.01 uM"}, "Beta-secretase 1 [4]": {"target": "T2, Beta-secretase 1", "assay": "Inhibitory activity against human beta-site APP-cleaving enzyme 1 at 0.01 uM"}},
  "note": "Starred links: 1 amine or outer side, 2 acyl side, 3 side chain; linkers in the order of their positions; H or OH if unused. Non-standard residues stand in square brackets, D forms with d. Residues, ends and D or L forms follow the SMILES beside them. LeuΨ(S-CHOHCH2)Ala = CC(C)C[C@H](N[*:1])[C@@H](O)C[C@@H](C)C(=O)[*:2]; X1 = CC(C)C[C@H](N[*:1])[C@@H](O)[C@@H]1CCC[C@H]1C(=O)[*:2]",
  "data": [
    {"smiles": "CCCCNC(=O)[C@@H](NC(=O)[C@@H]1OCC[C@H]1[C@H](O)[C@H](CC(C)C)NC(=O)[C@H](CCSC)NC(=O)[C@H](CC(C)C)NC(C)=O)C(C)C", "values": [
      {"measurement": "IC50", "setting": "Cathepsin D [1]", "value": 280, "unit": "nM"},
      {"measurement": "IC50", "setting": "Beta-secretase 1 [2]", "value": 9560, "unit": "nM"}
    ]},
    {"smiles": "CC(C)C[C@H](NC(=O)[C@H](CC(N)=O)NC(=O)[C@@H](NC(=O)[C@@H](N)CCC(=O)O)C(C)C)[C@@H](O)C[C@@H](C)C(=O)N[C@@H](C)C(=O)O", "note": "(H-EVN[LeuΨ(S-CHOHCH2)Ala]A-OH)", "values": [
      {"measurement": "IC50", "setting": "Cathepsin D [1]", "value": 98, "unit": "nM"},
      {"measurement": "IC50", "setting": "Beta-secretase 1 [2]", "value": 12, "unit": "nM"}
    ]},
    {"smiles": "CC(C)C[C@H](NC(=O)[C@H](CC(N)=O)NC(=O)[C@@H](NC(=O)[C@@H](N)CCC(=O)O)C(C)C)[C@@H](O)C[C@@H](C)C(=O)N[C@@H](C)C(=O)N[C@@H](CCC(=O)O)C(=O)N[C@@H](Cc1ccccc1)C(=O)O", "note": "(H-EVN[LeuΨ(S-CHOHCH2)Ala]AEF-OH)", "values": [
      {"measurement": "IC50", "setting": "Cathepsin D [1]", "value": 6, "unit": "nM"}
    ]},
    {"smiles": "CCCCNC(=O)[C@@H](NC(=O)[C@@H]1CCC[C@H]1[C@H](O)[C@H](CC(C)C)NC(=O)[C@H](CCSC)NC(=O)[C@H](CC(C)C)NC(C)=O)C(C)C", "values": [
      {"measurement": "IC50", "setting": "Cathepsin D [1]", "value": "< 10", "unit": "nM"},
      {"measurement": "IC50", "setting": "Beta-secretase 1 [2]", "value": 25, "unit": "nM"},
      {"measurement": "inhibition", "setting": "Cathepsin D [3]", "value": 100, "unit": "%"}
    ]},
    {"smiles": "CSCC[C@H](NC(=O)[C@H](CC(C)C)NC(C)=O)C(=O)N[C@@H](CC(C)C)[C@@H](O)[C@@H]1CC(=O)C[C@H]1C(=O)N[C@@H](C)C(=O)O", "values": [
      {"measurement": "IC50", "setting": "Cathepsin D [1]", "value": 1500, "unit": "nM"},
      {"measurement": "IC50", "setting": "Beta-secretase 1 [2]", "value": 720, "unit": "nM"}
    ]},
    {"smiles": "CCCCNC(=O)[C@@H](NC(=O)[C@@H]1CN(C)C[C@H]1[C@H](O)[C@H](CC(C)C)NC(=O)[C@H](CCSC)NC(=O)[C@H](CC(C)C)NC(C)=O)C(C)C", "values": [
      {"measurement": "IC50", "setting": "Cathepsin D [1]", "value": 1230, "unit": "nM"},
      {"measurement": "IC50", "setting": "Beta-secretase 1 [2]", "value": 3440, "unit": "nM"}
    ]},
    {"smiles": "C=C1C[C@@H]([C@H](O)[C@H](CC(C)C)NC(=O)[C@H](CCSC)NC(=O)[C@H](CC(C)C)NC(C)=O)[C@H](C(=O)N[C@@H](C)C(=O)O)C1", "values": [
      {"measurement": "IC50", "setting": "Cathepsin D [1]", "value": 430, "unit": "nM"},
      {"measurement": "IC50", "setting": "Beta-secretase 1 [2]", "value": "> 10000", "unit": "nM"}
    ]},
    {"smiles": "CC(C)C[C@H](NC(=O)[C@H](CC(N)=O)NC(=O)[C@@H](NC(=O)[C@@H](N)CCC(=O)O)C(C)C)[C@@H](O)[C@@H]1CCC[C@H]1C(=O)N[C@@H](C)C(=O)O", "note": "(H-EVN[X1]A-OH)", "values": [
      {"measurement": "IC50", "setting": "Cathepsin D [1]", "value": 6000, "unit": "nM"}
    ]},
    {"smiles": "CCCCNC(=O)[C@@H](NC(=O)[C@H]1[C@H]([C@H](O)[C@H](CC(C)C)NC(=O)[C@H](CCSC)NC(=O)[C@H](CC(C)C)NC(C)=O)CC(=O)N1C)C(C)C", "values": [
      {"measurement": "inhibition", "setting": "Beta-secretase 1 [4]", "value": 79, "unit": "%"},
      {"measurement": "IC50", "setting": "Cathepsin D [1]", "value": 70, "unit": "nM"},
      {"measurement": "IC50", "setting": "Beta-secretase 1 [2]", "value": "< 10", "unit": "nM"}
    ]},
    {"smiles": "CC(C)C[C@H](NC(=O)[C@H](CC(N)=O)NC(=O)[C@@H](NC(=O)[C@@H](N)CCC(=O)O)C(C)C)[C@@H](O)[C@@H]1CCC[C@H]1C(=O)N[C@@H](C)C(=O)N[C@@H](CCC(=O)O)C(=O)N[C@@H](Cc1ccccc1)C(=O)O", "note": "[CARBOCYCLIC PEPTIDOMIMETIC] (H-EVN[X1]AEF-OH)", "values": [
      {"measurement": "IC50", "setting": "Cathepsin D [1]", "value": "< 10", "unit": "nM"},
      {"measurement": "IC50", "setting": "Beta-secretase 1 [2]", "value": 16, "unit": "nM"},
      {"measurement": "inhibition", "setting": "Cathepsin D [3]", "value": 90, "unit": "%"}
    ]},
    {"smiles": "CCCCNC(=O)[C@@H]1CCC[C@H]1[C@H](O)[C@H](CC(C)C)NC(=O)[C@H](CCSC)NC(=O)[C@H](CC(C)C)NC(C)=O", "values": [
      {"measurement": "IC50", "setting": "Cathepsin D [1]", "value": 60, "unit": "nM"},
      {"measurement": "IC50", "setting": "Beta-secretase 1 [2]", "value": 1820, "unit": "nM"}
    ]},
    {"smiles": "CSCC[C@H](NC(=O)[C@H](CC(C)C)NC(C)=O)C(=O)N[C@@H](CC(C)C)[C@@H](O)[C@@H]1CCC[C@H]1C(=O)N[C@H](C(=O)O)C(C)C", "values": [
      {"measurement": "IC50", "setting": "Cathepsin D [1]", "value": 25, "unit": "nM"},
      {"measurement": "IC50", "setting": "Beta-secretase 1 [2]", "value": 190, "unit": "nM"}
    ]},
    {"smiles": "CC(C)C[C@H](NC(=O)[C@H](CC(N)=O)NC(=O)[C@@H](NC(=O)[C@@H](N)CCC(=O)O)C(C)C)[C@@H](O)[C@@H]1CCC[C@H]1C(=O)N[C@@H](C)C(=O)N[C@@H](CCC(=O)O)C(=O)O", "note": "(H-EVN[X1]AE-OH)", "values": [
      {"measurement": "IC50", "setting": "Cathepsin D [1]", "value": 60, "unit": "nM"},
      {"measurement": "IC50", "setting": "Beta-secretase 1 [2]", "value": 40, "unit": "nM"}
    ]},
    {"smiles": "CCCCNC(=O)[C@@H](NC(=O)[C@@H]1C(=O)N(CC)C[C@H]1[C@H](O)[C@H](CC(C)C)NC(=O)[C@H](CCSC)NC(=O)[C@H](CC(C)C)NC(C)=O)C(C)C", "values": [
      {"measurement": "IC50", "setting": "Cathepsin D [1]", "value": 130, "unit": "nM"},
      {"measurement": "IC50", "setting": "Beta-secretase 1 [2]", "value": 3350, "unit": "nM"}
    ]},
    {"smiles": "CCCCNC(=O)[C@@H](NC(=O)[C@@H]1CC(=O)C[C@H]1[C@H](O)[C@H](CC(C)C)NC(=O)[C@H](CCSC)NC(=O)[C@H](CC(C)C)NC(C)=O)C(C)C", "values": [
      {"measurement": "IC50", "setting": "Cathepsin D [1]", "value": 56, "unit": "nM"}
    ]},
    {"smiles": "CSCC[C@H](NC(=O)[C@H](CC(C)C)NC(C)=O)C(=O)N[C@@H](CC(C)C)[C@@H](O)[C@@H]1CCC[C@H]1C(=O)N[C@@H](C)C(=O)O", "values": [
      {"measurement": "IC50", "setting": "Cathepsin D [1]", "value": 90, "unit": "nM"},
      {"measurement": "IC50", "setting": "Beta-secretase 1 [2]", "value": 60, "unit": "nM"}
    ]},
    {"smiles": "CCCCNC(=O)[C@H](C)NC(=O)[C@@H]1CCC[C@H]1[C@H](O)[C@H](CC(C)C)NC(=O)[C@H](CCSC)NC(=O)[C@H](CC(C)C)NC(C)=O", "values": [
      {"measurement": "IC50", "setting": "Cathepsin D [1]", "value": "< 10", "unit": "nM"},
      {"measurement": "IC50", "setting": "Beta-secretase 1 [2]", "value": 185, "unit": "nM"},
      {"measurement": "inhibition", "setting": "Cathepsin D [3]", "value": 95, "unit": "%"}
    ]}
  ]
}
